{"source": "patent US20090318678A1", "about": "“Stable C-Glycoside Sugar and C-Glycoconjugate Mimetics, Method for preparing same and uses Thereof in Particular in Cosmetics and Drugs” (TFCHEM, priority 2006, published 2009)", "test_system": "α-galactosidase and β-galactosidase", "assay": "Test in the presence of glycosidase (resistance to galactosidases, monitored by 19F NMR)", "type": "in vitro ADME", "conditions": "phosphate buffer 0.07 M, pH 7, 37° C.; α-galactosidase (5 units) and β-galactosidase (6.25 units); samples after 24, 48, 72, 96 and 120 hours", "method": "Indeed, it is known that the following compounds undergo enzymatic break-down (FIG. 25).\nThe protocol used is as follows (FIG. 26)\nA solution of compound 17a1 (17.72 mg) in water (500 μl) is added to a solution of phosphate buffer (0.07 M; pH 7, 4 ml) containing α-galactosidase (5 units) and β-galactosidase (6.25 units) at 37° C. The reaction is monitored by ^19F NMR. Samples are taken after 24, 48, 72, 96 and 120 hours."}
{"molecule": "C[C@H](NC(=O)[C@H](C)NC(=O)[C@@H](N)CCCCNC(=O)[C@H](F)[C@]1(O)O[C@H](CO)[C@H](O)[C@H](O)[C@H]1O)C(=O)O", "note": "[Compound 17a1]", "values": [{"measurement": "resistance to glycosidases / stability (change of the starting product by 19F NMR)", "result": "No change is observed and the starting product remains"}]}
